Literature values in publication PMC6444188, “Systemic Administration of Avian Defensin 7: Distribution, Cellular Target, and Antibacterial Potential in Mice” (Frontiers in Microbiology, 2019).
Ends that are not written are not given here.

What was measured:
S. Typhimurium = tested on: S. Typhimurium
Source text: The ability of AvBD7 to reduce bacterial load in the liver of Salmonella-infected animals is in agreement with the distribution of this defensin to this organ. Indeed, even if most part of the fluorescence-labeled AvBD7 injected in the peritoneal cavity of mice reached bloodstream, kidneys and was eliminated through the urinary tract, a substantial amount was found in the liver, the second most fluorescent organ after the kidneys.

S. Typhi = conditions: intraperitoneal mouse model of salmonellosis; ref Maiti et al., 2014
Source text: There is a lack of knowledge on the ability of defensins to exert antimicrobial activity toward MDR bacterial strains. […] There are several mouse salmonellosis models available to assess vaccine and antimicrobials efficacy ([Higginson et al., 2016]). These range from models of colonization or lethality, through infection by the oral, ...

proteases = tested on: proteases
Source text: AvBDs are characterized by cationicity and structure with the typical beta-sheet stabilized by three disulfide bonds between six highly conserved cysteines while primary sequences are diverse ([Derache et al., 2012]).

[1] = 30 mg/kg i.p., S. Typhimurium-infected mice, ref Benincasa et al., 2010

Substance: Bac7: proline-rich antimicrobial peptide (RRIRPRPPRLPRPRPRPLPFPRPGPRPIPRPLPFP; Bac7; UniProt P19661 131-165, looked up, fragment)
- effect on liver bacterial load (S. Typhimurium; [1]): without significant reduction of the liver bacterial load
- effect on mice survival (S. Typhimurium; [1]): beneficial effect on mice survival
- time to elimination following i.p. injection (S. Typhimurium; mouse, in vivo, ip): ≤ 5 h

Substance: HBD1: human beta-defensin (DHYNCVSSGGQCLYSACPIFTKIQGTCYRGKAKCCK; ends and bridges not checked; cysteine pairing not given here; UniProt P60022 33-68, looked up)
- effect on disease and bacterial load (S. Typhi): efficient in attenuating the disease and the bacterial load

Substance: HBD3: human beta-defensin (GIINTLQKYYCRVRGGRCAVLSCLPKEEQIGKCSTRGRKCCRRKK; ends and bridges not checked; cysteine pairing not given here; UniProt P81534 23-67, looked up)
- stability toward proteases (proteases): can be inactivated by proteases
